Experimental data published in PubChem BioAssay AID2060617 (Molecular Pharmacology Branch, DTP, NCI, 2025).
Values joined by “and” are separate entries in the source; they are usually repeats but may differ in a detail not shown here. Equal entries are not always repeated.

Tested on: 485368-065-R4-J2-PDC spheroids with HUVEC/MSC, viability
Experiment: Anticancer human tumor 485368-065-R4-J2-PDC patient-derived pancreatic carcinoma cell line growth inhibition [CLK]
Details: for viability, T/C: stronger effect = lower value; active = viability on the fitted dose curve at most 10% of control; inactive = the rest
How it was run: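 Patient-derived tumor cells grown as complex spheroids with HUVEC endothelial cells and mesenchymal stem cells, treated with drug combinations. Concentrations descend in half-log steps from near clinical Cmax, or from 10 microM if Cmax unknown.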

[1] = curve of first compound, second compound 0.0316 µM
[2] = curve of first compound, second compound 0.1 µM
[3] = curve of first compound, second compound 0.316 µM
[4] = curve of first compound, second compound 1 µM
[5] = curve of first compound, second compound 3.16 µM
[6] = curve of first compound, second compound 10 µM
[7] = second compound 0.0316 µM, first compound 0.0316 µM
[8] = second compound 0.0316 µM, first compound 0.1 µM
[9] = second compound 0.0316 µM, first compound 0.316 µM
[10] = second compound 0.0316 µM, first compound 1 µM
[11] = second compound 0.0316 µM, first compound 3.16 µM
[12] = second compound 0.0316 µM, first compound 10 µM
[13] = second compound 0.1 µM, first compound 0.0316 µM
[14] = second compound 0.1 µM, first compound 0.1 µM
[15] = second compound 0.1 µM, first compound 0.316 µM
[16] = second compound 0.1 µM, first compound 1 µM
[17] = second compound 0.1 µM, first compound 3.16 µM
[18] = second compound 0.1 µM, first compound 10 µM
[19] = second compound 0.316 µM, first compound 0.0316 µM
[20] = second compound 0.316 µM, first compound 0.1 µM
[21] = second compound 0.316 µM, first compound 0.316 µM
[22] = second compound 0.316 µM, first compound 1 µM
[23] = second compound 0.316 µM, first compound 3.16 µM
[24] = second compound 0.316 µM, first compound 10 µM
[25] = second compound 1 µM, first compound 0.0316 µM
[26] = second compound 1 µM, first compound 0.1 µM
[27] = second compound 1 µM, first compound 0.316 µM
[28] = second compound 1 µM, first compound 1 µM
[29] = second compound 1 µM, first compound 3.16 µM
[30] = second compound 1 µM, first compound 10 µM
[31] = second compound 3.16 µM, first compound 0.0316 µM
[32] = second compound 3.16 µM, first compound 0.1 µM
[33] = second compound 3.16 µM, first compound 0.316 µM
[34] = second compound 3.16 µM, first compound 1 µM
[35] = second compound 3.16 µM, first compound 3.16 µM
[36] = second compound 3.16 µM, first compound 10 µM
[37] = second compound 10 µM, first compound 0.0316 µM
[38] = second compound 10 µM, first compound 0.1 µM
[39] = second compound 10 µM, first compound 0.316 µM
[40] = second compound 10 µM, first compound 1 µM
[41] = second compound 10 µM, first compound 3.16 µM
[42] = second compound 10 µM, first compound 10 µM
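Note: spheroids exposed to compounds for seven days.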
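Throughout, for viability, T/C: 100% = DMSO vehicle control wells.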

COc1cccc2c1C(=O)c1c(O)c3c(c(O)c1C2=O)CC(O)(C(=O)CO)CC3OC1CC(N)C(O)C(C)O1 (stereo not drawn) + CN1CCN(c2cc(C(=O)Nc3cc4cc(-c5cnn(C)c5)ccc4cn3)ccn2)CC1
340 nM: IC50 [1]
86.9 nM: IC50 [3]
active: viability, T/C [25] 0.88% | viability, T/C [26] 0.73% | viability, T/C [27] 1.56% | viability, T/C [28] 5.86% | viability, T/C [31] 1.17% | viability, T/C [32] 1.22% | viability, T/C [33] 2.37% | viability, T/C [34] 6.61% | viability, T/C [37] 1.73% | viability, T/C [38] 1.28% | viability, T/C [39] 2.28% | viability, T/C [40] 8.69%
< 31.6 nM: IC50 [4] | IC50 [5] | IC50 [6]
inactive: viability, T/C [7] 97.5% | viability, T/C [8] 91.9% | viability, T/C [9] 51.1% | viability, T/C [10] 22.8% | viability, T/C [11] 6.06% | viability, T/C [12] 20.1% | viability, T/C [13] 95.9% | viability, T/C [14] 81.3% | viability, T/C [15] 34.5% | viability, T/C [16] 13.1% | viability, T/C [17] 5.58% | viability, T/C [18] 20.2% | viability, T/C [19] 69.8% | viability, T/C [20] 47.2% | viability, T/C [21] 12.7% | viability, T/C [22] 6.03% | viability, T/C [23] 8.55% | viability, T/C [24] 26.6% | viability, T/C [29] 12.6% | viability, T/C [30] 28.8% | viability, T/C [35] 14.8% | viability, T/C [36] 30.9% | viability, T/C [41] 14.6% | viability, T/C [42] 27.2%
215 nM: IC50 [2]

NC(=O)C(=Cn1cnc(-c2cc(C(F)(F)F)cc(C(F)(F)F)c2)n1)c1cncnc1
> 3000 nM: IC50 (curve of compound)
inactive: viability, T/C (compound 0.00949 µM) 94.3% and 112% | viability, T/C (compound 0.03 µM) 120% and 123% | viability, T/C (compound 0.0949 µM) 176% and 183% | viability, T/C (compound 0.3 µM) 193% and 186% | viability, T/C (compound 0.949 µM) 169% and 182% | viability, T/C (compound 3 µM) 122% and 136%

CCN1CCN(Cc2ccc(Nc3ncc(F)c(-c4cc(F)c5nc(C)n(C(C)C)c5c4)n3)nc2)CC1
inactive: viability, T/C (compound 0.00316 µM) 91.1% and 106% | viability, T/C (compound 0.01 µM) 114% and 96.1% | viability, T/C (compound 0.0316 µM) 115% and 116% | viability, T/C (compound 0.1 µM) 140% and 113% | viability, T/C (compound 0.316 µM) 128% and 129% | viability, T/C (compound 1 µM) 117% and 116%
> 1000 nM: IC50 (curve of compound)

COc1cccc2c1C(=O)c1c(O)c3c(c(O)c1C2=O)CC(O)(C(=O)CO)CC3OC1CC(N)C(O)C(C)O1 (stereo not drawn) + CNC(=O)c1ccc(Nc2nc(OC3CCCC3)c3c(-c4ccc5nc(C)oc5c4)c[nH]c3n2)c(OC)c1
136 nM: IC50 [5]
156 nM: IC50 [4]
406 nM: IC50 [2]
inactive: viability, T/C [7] 89.3% | viability, T/C [8] 94.2% | viability, T/C [9] 56.9% | viability, T/C [10] 31.6% | viability, T/C [11] 8.22% | viability, T/C [12] 23.9% | viability, T/C [13] 101% | viability, T/C [14] 100% | viability, T/C [15] 55.9% | viability, T/C [16] 26.9% | viability, T/C [17] 7.71% | viability, T/C [18] 22.3% | viability, T/C [19] 101% | viability, T/C [20] 86.2% | viability, T/C [21] 45% | viability, T/C [22] 18.6% | viability, T/C [23] 6.61% | viability, T/C [24] 25.7% | viability, T/C [25] 91% | viability, T/C [26] 66% | viability, T/C [27] 25.1% | viability, T/C [28] 11.3% | viability, T/C [29] 6.11% | viability, T/C [30] 23.9% | viability, T/C [31] 76.6% | viability, T/C [32] 61.7% | viability, T/C [33] 17.9% | viability, T/C [34] 8.87% | viability, T/C [35] 6.5% | viability, T/C [36] 15.5% | viability, T/C [37] 76.6% | viability, T/C [38] 53.4% | viability, T/C [39] 17.2% | viability, T/C [40] 7.28% | viability, T/C [41] 7.64% | viability, T/C [42] 17.4%
111 nM: IC50 [6]
445 nM: IC50 [1]
270 nM: IC50 [3]

O=C(c1cc(Cc2n[nH]c(=O)c3ccccc23)ccc1F)N1CCN(C(=O)C2CC2)CC1
inactive: viability, T/C (compound 0.0316 µM) 100% and 107% | viability, T/C (compound 0.1 µM) 97.7% and 89.2% | viability, T/C (compound 0.316 µM) 88.7% and 107% | viability, T/C (compound 1 µM) 98.2% and 104% | viability, T/C (compound 3.16 µM) 98.8% and 108% | viability, T/C (compound 10 µM) 89.5% and 94.8%
> 10000 nM: IC50 (curve of compound)

COc1c(OCCCN2CCOCC2)ccc2c3n(c(=NC(=O)c4cnc(N)nc4)nc12)CCN3
inactive: viability, T/C (compound 0.00316 µM) 97% and 92.1% | viability, T/C (compound 0.01 µM) 101% and 121% | viability, T/C (compound 0.0316 µM) 109% and 111% | viability, T/C (compound 0.1 µM) 77.3% and 65.7% | viability, T/C (compound 0.316 µM) 50.9% and 52% | viability, T/C (compound 1 µM) 41.1% and 39.6%
281 nM and 248 nM: IC50 (curve of compound)

COC1C=CCC(C)C(C)S(=O)(=O)NC(=O)c2ccc3c(c2)N(CC2CCC21)CC1(CCCc2cc(Cl)ccc21)CO3 (stereo not drawn) + CNC(=O)c1ccc(Nc2nc(OC3CCCC3)c3c(-c4ccc5nc(C)oc5c4)c[nH]c3n2)c(OC)c1
> 10000 nM: IC50 [1] | IC50 [2] | IC50 [3] | IC50 [4] | IC50 [5] | IC50 [6]
inactive: viability, T/C [7] 88.7% | viability, T/C [8] 82.8% | viability, T/C [9] 96.8% | viability, T/C [10] 105% | viability, T/C [11] 103% | viability, T/C [12] 85.9% | viability, T/C [13] 96% | viability, T/C [14] 99.7% | viability, T/C [15] 105% | viability, T/C [16] 96.4% | viability, T/C [17] 92.8% | viability, T/C [18] 91.3% | viability, T/C [19] 82.5% | viability, T/C [20] 77.9% | viability, T/C [21] 89.8% | viability, T/C [22] 89.7% | viability, T/C [23] 98.8% | viability, T/C [24] 102% | viability, T/C [25] 83.2% | viability, T/C [26] 74.1% | viability, T/C [27] 73.7% | viability, T/C [28] 74.9% | viability, T/C [29] 91.8% | viability, T/C [30] 105% | viability, T/C [31] 71.2% | viability, T/C [32] 69.7% | viability, T/C [33] 72.9% | viability, T/C [34] 68.4% | viability, T/C [35] 94.2% | viability, T/C [36] 102% | viability, T/C [37] 65.5% | viability, T/C [38] 68.6% | viability, T/C [39] 69.1% | viability, T/C [40] 66.7% | viability, T/C [41] 82.3% | viability, T/C [42] 85.9%

CC1(C)CCC(CN2CCN(c3ccc(C(=O)NS(=O)(=O)c4ccc(NCC5CCOCC5)c([N+](=O)[O-])c4)c(Oc4cnc5[nH]ccc5c4)c3)CC2)=C(c2ccc(Cl)cc2)C1 + CNC(=O)c1ccc(Nc2nc(OC3CCCC3)c3c(-c4ccc5nc(C)oc5c4)c[nH]c3n2)c(OC)c1
7110 nM: IC50 [1]
6750 nM: IC50 [4]
6510 nM: IC50 [5]
6860 nM: IC50 [3]
6430 nM: IC50 [6]
inactive: viability, T/C [7] 101% | viability, T/C [8] 95.1% | viability, T/C [9] 85.5% | viability, T/C [10] 102% | viability, T/C [11] 117% | viability, T/C [12] 28.9% | viability, T/C [13] 98.2% | viability, T/C [14] 97.6% | viability, T/C [15] 98.3% | viability, T/C [16] 105% | viability, T/C [17] 107% | viability, T/C [18] 30.8% | viability, T/C [19] 86.7% | viability, T/C [20] 89.8% | viability, T/C [21] 93.4% | viability, T/C [22] 89.5% | viability, T/C [23] 97.1% | viability, T/C [24] 29.9% | viability, T/C [25] 74.6% | viability, T/C [26] 76% | viability, T/C [27] 80.7% | viability, T/C [28] 87.2% | viability, T/C [29] 98.7% | viability, T/C [30] 32.6% | viability, T/C [31] 74% | viability, T/C [32] 73.9% | viability, T/C [33] 74% | viability, T/C [34] 73.5% | viability, T/C [35] 93.5% | viability, T/C [36] 33.5% | viability, T/C [37] 72.6% | viability, T/C [38] 72% | viability, T/C [39] 62.2% | viability, T/C [40] 72.6% | viability, T/C [41] 90.8% | viability, T/C [42] 35.2%
7320 nM: IC50 [2]

CC1(C)CCC(CN2CCN(c3ccc(C(=O)NS(=O)(=O)c4ccc(NCC5CCOCC5)c([N+](=O)[O-])c4)c(Oc4cnc5[nH]ccc5c4)c3)CC2)=C(c2ccc(Cl)cc2)C1
inactive: viability, T/C (compound 0.0316 µM) 94.5% and 89% | viability, T/C (compound 0.1 µM) 101% and 106% | viability, T/C (compound 0.316 µM) 98.6% and 95% | viability, T/C (compound 1 µM) 100% and 93.7% | viability, T/C (compound 3.16 µM) 120% and 119% | viability, T/C (compound 10 µM) 33.1% and 28%
7560 nM and 7070 nM: IC50 (curve of compound)
